The values below come from patent US11564914B2, “Methods of treating bone loss” (THE REGENTS OF THE UNIVERSITY OF CALIFORNIA, priority 2016, dated 2023).

One data set has as its target T1, sEH (Homo sapiens, UniProt P34913).
T1 sequence (P34913 1-555): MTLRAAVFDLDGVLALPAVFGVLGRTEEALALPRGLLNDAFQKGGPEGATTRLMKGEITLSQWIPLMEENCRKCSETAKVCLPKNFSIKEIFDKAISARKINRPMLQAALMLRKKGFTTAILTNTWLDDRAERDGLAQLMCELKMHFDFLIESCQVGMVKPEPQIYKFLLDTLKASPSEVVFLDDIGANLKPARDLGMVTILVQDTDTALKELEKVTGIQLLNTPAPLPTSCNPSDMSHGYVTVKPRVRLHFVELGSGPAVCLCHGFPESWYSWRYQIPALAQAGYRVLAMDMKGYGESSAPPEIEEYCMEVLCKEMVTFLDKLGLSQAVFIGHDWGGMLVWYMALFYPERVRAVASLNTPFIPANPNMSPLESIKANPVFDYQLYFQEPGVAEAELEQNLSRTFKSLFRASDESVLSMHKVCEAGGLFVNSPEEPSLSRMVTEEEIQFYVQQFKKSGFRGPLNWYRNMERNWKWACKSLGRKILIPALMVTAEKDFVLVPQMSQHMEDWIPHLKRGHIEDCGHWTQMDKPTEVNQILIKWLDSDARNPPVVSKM
Nature of the data set: testing as sEH inhibitors (method not given). It is filed as biochemical.

The nature of data set [1]: metabolic stability (method not given).
Data set [2] in a line: blood concentration of TPPU by LC-MS. The following applies: mouse, whole blood; mice, 24 h after last oral administration, after 15 days at 1 mg/kg/day. The data set is classed as in vivo. How it is done:
The samples were taken at 24 h after the last oral gavage treatment. […] The results are expressed as mean±SD from six mice per group.
Animals orally received 1×10^9 CFU/ml of a diluted culture of freshly grown A. actinomycetemcomitans JP2, in a volume of 100 μl PBS containing 2% carboxymethylcellulose. The solution was placed into the oral cavity with a micropipette, and the procedure was repeated at 48 and 96 h after the first inoculation. Treatment with TPPU and EETs was initiated after the third inoculation of bacteria. The inhibitor was dissolved in PEG400 and administered at 1 mg/kg/day by oral gavage. For the treatment with EETs, we attempted to apply viscous solution of mixture of EET-methyl ester regioisomers dissolved in PEG400 to the gum tissue using a fine pipette at a dose of 1 μg/kg/day. The mice received the entire EET dose. This was done immediately before the oral gavage with both groups of mice receiving TPPU or mice receiving vehicle alone. Because EETs are unstable in stomach acid we assume exposure is largely topical or buccal. All treatments continued for 15 days. […] The negative control group consisted of uninfected mice (sham-infected), the positive control group was infected and received the vehicle only. One day after the treatment period (16th day), animals were sacrificed by cardiac puncture after anesthesia with xylazine/ketamine. […]

Each structure is given as a SMILES string.

As to `CCCCCCCCCCCCNC(=O)NC12CC3CC(CC(C3)C1)C2` [ADU, N-Adamantyl-N′-dodecyl urea], the “activity as inhibitor of sEH” value at sEH is recorded as “particularly high activity”. Besides, the metabolic stability entry in data set [1] is “metabolically stable”. Turning to `CCC(=O)N1CCC(NC(=O)Nc2ccc(OC(F)(F)F)cc2)CC1` [TPPU, 1-trifluoromethoxyphenyl-3-(1-propionylpiperidin-4-yl) urea], the concentration at 24 h in data set [2] was greater than 8000 ng/mL.
